Measured values as given in US20220387435A1, “USE OF MULTI-TARGET PROTEIN KINASE INHIBITOR” (CSPC Zhongqi Pharmaceutical Technology (Shijiazhuang) Co., …, priority 2019, published 2022).
Several values for one entry are separate records, joined by “and”; a condition that tells them apart may be missing. Equal entries are not always repeated.

Tested on: Chinese adult subjects with FLT3-mutant R/R AML
Experiment: Phase II clinical study, efficacy
Assay type: in vivo, human
Conditions: for Overall CR rate (95% CI), (CR+CRh+CRi)/enrolled subjects / best efficacy: CR / best efficacy: CRh / best efficacy: CRi / best efficacy: NE / best efficacy: PD / best efficacy: PR / best efficacy: SD: FAS; for disengagement from blood transfusion: the CR and the CRh subject
Experimental: 28 consecutive days was regarded as one treatment cycle.
The trial started with the 150 mg BID group, and after completing the first cycle of the tolerability investigation of 3 subjects in this group, the tolerability study of the 200 mg BID group was carried out. The principle of the subject enrollment was to give priority to meeting three subjects in the tolerability investigation period. Since the 300 mg QD group had been proven to be well tolerated in a single tolerability trial, other qualified subjects screened during the tolerability investigation period could directly enter the 300 mg QD group.
The second stage was the dose expansion period. After the completion of the first cycle of the study in a dose group, if the investigator assessed that the subjects had significant benefits, the dose group would undergo the cohort expansion to further explore possible effective doses, and continue to increase to at least 10 subjects. During this period, investigators, sponsors, quantitative pharmacology experts, clinical pharmacology experts, and statistical experts discussed whether to continue the cohort expansion according to the efficacy of the dose group (see FIG. 1 for the specific trial method).
Overall CR (CR, CRh, CRi) rate: defined as the proportion of subjects who achieved CR, CRh, CRi during Compound A treatment among all subjects enrolled in this study. Subjects who were not assessed for response were included in the denominator when calculating the response rate.
(1) Three year overall survival (OS): the OS time was referred to the time from the first drug administration to the death from any cause within 3 years.
(2) Three year event-free survival (EFS): it was referred to the time from the randomized enrollment to the first occurrence of any of the following conditions within 3 years: (1) no CR (CR, CRh, CRi) occurred within 6 months of treatment, (2) relapsed after reaching the specified CR (CR, CRh, CRi), (3) disease progression, (4) all-cause death at any time during the study, whichever occurred first.
(3) Duration of response-CR (DoR-CR): the DoR-CR time was referred to the time from the first achievement of CR to the recording of hematological relapse, extramedullary disease, or death from any cause (whichever was earlier).

[1] = 0 unfavorable prognostic factors (4 subjects)
[2] = 1 unfavorable prognostic factor (9 subjects)
[3] = 2 unfavorable prognostic factors (15 subjects)
[4] = 3 subjects with FLT3-ITD^high mutation (≥0.5)
[5] = 3 subjects with FLT3-ITD^low mutation (<0.5)
[6] = 10 subjects with prior sorafenib treatment

For `CC(C)n1c(Nc2cccnc2)nc2cnc(Nc3ccc(N4CCN(C)CC4)cc3)nc21` [Compound A], the CRh [1] was 2 subjects, the CRi [1] was 1 subjects and the “Overall CR rate” value [1] was 75%. The “Overall CR rate” value (0 unfavorable prognostic factors (4 subjects), listed as compound A) was 75%, the “Overall CR rate (95% CI), (CR+CRh+CRi)/enrolled subjects” value (shortened to “Overall CR rate (95% CI)”) (150 mg BID group (N = 14)) was 28.6 (8.39-58.10) % and the “best efficacy: CR” value (150 mg BID group (N = 14)) was 1 (7.1%) n (%) and 1 (7.1) n (%). The “best efficacy: CRh” value (150 mg BID group (N = 14)) was 1 (7.1%) n (%) and 1 (7.1) n (%), the “best efficacy: CRi” value (150 mg BID group (N = 14)) was 2 (14.3%) n (%) and 2 (14.3) n (%) and the “best efficacy: NE” value (150 mg BID group (N = 14)) was 2 (14.3) n (%). For the same molecule, the “best efficacy: PD” value (150 mg BID group (N = 14)) was 1 (7.1) n (%), the “best efficacy: PR” value (150 mg BID group (N = 14)) was 2 (14.3) n (%) and the “best efficacy: SD” value (150 mg BID group (N = 14)) was 5 (35.7) n (%). For the same molecule, the survival rate (150 mg BID group, 3-month) was 64.3%, the survival rate (150 mg BID group, 6-month) was 38.6% and the survival rate (150 mg BID group, 9-month) was 25.7%. For the same molecule, the survival rate (150 mg BID group, 11-month) was 25.7%, the CR/CRh cases (150 mg BID group, 14 subjects) was 2 (14.3%) n (%) and the “disengagement from blood transfusion” value (150 mg BID group) was no less than 56 days. The “median EFS” value (150 mg BID group, 95% CI 1.3-5.9) was 4.9 months, the “median OS” value (150 mg BID group, 95% CI 2.3-NC) was 4.2 months and the “median time to the first CR” value (150 mg BID group, range 2-3 months) was 2.5 months. For the same molecule, the “Overall CR rate (95% CI)” value (200 mg BID group (N = 4)) was 0 (0.00-60.24) %, the “best efficacy: CR” value (200 mg BID group (N = 4)) was 0 (0) n (%) and the “best efficacy: CRh” value (200 mg BID group (N = 4)) was 0 (0) n (%). For the same molecule, the “best efficacy: CRi” value (200 mg BID group (N = 4)) was 0 (0) n (%), the “best efficacy: NE” value (200 mg BID group (N = 4)) was 1 n (%) and 1 (25.0) n (%) and the “best efficacy: PD” value (200 mg BID group (N = 4)) was 0 (0) n (%). For the same molecule, the “best efficacy: PR” value (200 mg BID group (N = 4)) was 0 (0) n (%), the “best efficacy: SD” value (200 mg BID group (N = 4)) was 3 n (%) and 3 (75.0) n (%) and the survival rate (200 mg BID group, 3-month) was 25%. The “median EFS” value (200 mg BID group, 95% CI 0.7-3.0) was 2.3 months, the “median OS” value (200 mg BID group, 95% CI 0.7-NC) was 2.9 months and the “Overall CR rate (95% CI)” value (300 mg QD group (N = 13)) was 30.8 (9.09-61.43) %. For the same molecule, the “best efficacy: CR” value (300 mg QD group (N = 13)) was 1 n (%) and 1 (7.7) n (%), the “best efficacy: CRh” value (300 mg QD group (N = 13)) was 1 n (%) and 1 (7.7) n (%) and the “best efficacy: CRi” value (300 mg QD group (N = 13)) was 2 n (%) and 2 (15.4) n (%). For the same molecule, the “best efficacy: NE” value (300 mg QD group (N = 13)) was 0 (0) n (%), the “best efficacy: PD” value (300 mg QD group (N = 13)) was 0 (0) n (%) and the “best efficacy: PR” value (300 mg QD group (N = 13)) was 0 (0) n (%). The “best efficacy: SD” value (300 mg QD group (N = 13)) was 9 (69.2) n (%), the survival rate (300 mg QD group, 3-month) was 75.2% and the survival rate (300 mg QD group, 6-month) was 50.1%. The “disengagement from blood transfusion” value (300 mg QD group) was no less than 56 days, the “median EFS” value (300 mg QD group, 95% CI 1.7-6.2) was 2.9 months and the “median OS” value (300 mg QD group, 95% CI 2.7-NC) was 4.4 months. For the same molecule, the “median time to the first CR” value (300 mg QD group, range 1-3 months) was 1.5 months, the CRi [2] was 2 subjects and the NE [2] was 1 subjects. The “Overall CR rate” value [2] was 20%, the PR [2] was 1 subjects and the CR [3] was 2 subjects. The CRi [3] was 1 subjects, the “Overall CR rate” value [3] was 20% and the PR [3] was 1 subjects. The “subjects achieving CRh” value [4] was 2 subjects, the “subjects achieving SD” value [4] was 1 subject and the “subjects achieving PR as the best response” value [5] was 1 subject. The “subjects achieving SD as the best response” value [5] was 2 subjects, the “Overall CR rate” value (3 unfavorable prognostic factors (3 subjects)) was 0% and the “proportion of the M5 subjects among subjects who achieved CR/CRh/CRi” value (8 subjects with CR/CRh/CRi) was 62.5%. For the same molecule, the “subjects achieving CRi” value (9 subjects with TKD mutations) was 2 subjects, the “subjects achieving CR” value [6] was 1 subject and the “subjects achieving CRh” value [6] was 1 subject. For the same molecule, the “subjects achieving CRi” value [6] was 1 subject, the “subjects achieving CR” value (22 subjects with ITD mutations) was 2 subjects and the “subjects achieving CRh” value (22 subjects with ITD mutations) was 2 subjects. For the same molecule, the “subjects achieving CRi” value (22 subjects with ITD mutations) was 2 subjects, the “median EFS” value (31 subjects, 95% CI 2.6-5.4) was 3.0 months and the “median OS” value (31 subjects, 95% CI 2.9-NC) was 4.4 months. For the same molecule, the response (Case 2, 300 mg QD, at C3) was “CRi”, the response (Case 2, 300 mg QD, at C4) was “CRh” and the response (Case 3, 300 mg QD, C2) was “CRi”. For the same molecule, the response (Case 3, 300 mg QD, C3) was “CRh”, the myeloblast (Case 3, 300 mg QD, in C2 (from 33.5%)) was 3% and the myeloblast (Case 3, 300 mg QD, in C3) was 2%. The response (Case 4, 150 mg BID, at C2) was “CRi”, the response (Case 4, 150 mg BID, at C3) was “CRh” and the “duration of the CR response” value (Case 5, 150 mg BID) was 5 cycles. For the same molecule, the response (Case 5, 150 mg BID, C11) was “CRi”, the response (Case 5, 150 mg BID, C12) was “CRi” and the myeloblast (Case 5, 150 mg BID, after C1) was 3%. For the same molecule, the CR/CRh/CRi proportion (FAB M2 type (1/6)) was 16.7%, the CR/CRh/CRi proportion (FAB M4 type (2/9)) was 22.2% and the CR/CRh/CRi proportion (FAB M5 type (5/14)) was 35.7%. The “Overall CR rate (95% CI)” value (Total (N = 31)) was 25.8 (11.86-44.61) %, the “best efficacy: CR” value (Total (N = 31)) was 2 (6.5%) n (%) and 2 (6.5) n (%) and the “best efficacy: CRh” value (Total (N = 31)) was 2 (6.5%) n (%) and 2 (6.5) n (%). For the same molecule, the “best efficacy: CRi” value (Total (N = 31)) was 4 (12.9%) n (%) and 4 (12.9) n (%), the “best efficacy: NE” value (Total (N = 31)) was 3 (9.7) n (%) and the “best efficacy: PD” value (Total (N = 31)) was 1 (3-2) n (%). The “best efficacy: PR” value (Total (N = 31)) was 2 (6.5%) n (%) and 2 (6.5) n (%), the “best efficacy: SD” value (Total (N = 31)) was 17 (54.8) n (%) and the “Overall CR rate” value (subjects with 1-2 unfavorable prognostic factors) was 20%. For the same molecule, the “blast cells decreased compared with the baseline” value (the SD subject with FLT3-ITD^high mutation, at C2) was 70%.
